Values quoted from earlier work, collected in patent US9856304B2, “Peptide and application thereof” (Saitama Medical University, priority 2013, dated 2018).

System: pancreatic β cells
Conditions: as described in Patent Document 1; cited from earlier work

Substance	activity for promoting increase in pancreatic β cells
B: 19 amino acid fragment of human TM4SF20, Position 78 to 96, from Patent Document 1 (CNNRTGMFLSSLFSVITVI; listed as Homo sapiens)	not as high as expected
C: 19 amino acid fragment of human TM4SF20, Position 161 to 179, from Patent Document 1 (TSNDTMASGWRASSFHFDS; listed as Homo sapiens)	not as high as expected
Peptide A: 19 amino acid fragment of human TM4SF20, Position 98 to 116, from Patent Document 1 (ALYCMLISIQALLKGPLMC; listed as Homo sapiens)	not as high as expected
